Experimental data from PubChem BioAssay AID2060611 (Molecular Pharmacology Branch, DTP, NCI, 2025).

System: 628569-122-R-J1-PDC complex spheroid viability
Experiment: Anticancer human tumor 628569-122-R-J1-PDC patient-derived head and neck squamous carcinoma cell line growth inhibition [CLK]
Details: for IC50: curve of first compound; for viability, T/C: stronger effect = lower value
Description: A high-throughput screen of multi-cell type tumor spheroids was designed to identify active combinations of […] and targeted small molecules. Complex spheroids include a stromal component modeled by human endothelial cells (HUVEC) and fibroblasts modeled by human mesenchymal stem cells (MSCs). The concentration ranges selected for each drug and investigational agent were based upon clinically achievable concentrations if the clinical Cmax of the agent was known.
Compounds. The drugs and investigational agents: cirtuvivint (SM08502; NSC835563), CC-671 (NSC850746), vemurafenib (NSC761431), tapotoclax (NSC804041), sotorasib (NSC818433), adagrasib (NSC831453), MRTX-1133 (NSC836407), BAY2416964 (NSC825713), copanlisib (NSC816437), inavolisib (NSC800729), abemaciclib (NSC768073), osimertinib (NSC779217), entinostat (NSC756642), eltanexor (KPT-8602, NSC794443), venetoclax (NSC766270), ceralasertib (NSC777638), bortezomib (NSC756655), olaparib (NSC753686), talazoparib (NSC767125), alisertib (NSC759677), peposertib (NSC802822), gemcitabine (NSC613327), 5-fluorouracil (NSC19893), SN-38 (NSC673596), oxaliplatin (NSC266046), paclitaxel (NSC125973), and doxorubicin (NSC123127), were obtained from the National Cancer Institute (NCI) Developmental Therapeutics Program Chemical Repository. The FDA-approved anticancer drug set is available from the Developmental Therapeutics Program at https://dtp.cancer.gov/organization/dscb/obtaining/available plates.htm. […] The stock solutions were prepared in dimethyl sulfoxide (DMSO, Sigma-Aldrich, St. Louis, MO, cat. D2650), except for the platinum complexes which were prepared in saline (Quality Biological, Gaithersburg, MD, cat. 114-055-101), at 800-fold the tested concentration and stored at -70 degrees C prior to their use. All drugs and investigational agents were tested over a range starting from a high concentration at or near the clinical Cmax and decreasing in half-log increments. If the clinical Cmax for an agent had not been determined, the highest concentration tested was 10 microM.
Cell Culture. All cells were maintained in an incubator at 37 degrees C and 5% CO2 with 95% humidity. The PDC lines were cultured according to standard operating procedures established by the NCI PDMR. Briefly, all PDCs were thawed and cultured in Matrigel-coated flasks prepared with a working solution of 1X Ham's F-12 nutrient mix, without supplementation (Invitrogen, Waltham, MA, cat. 11765054), 100 U/mL penicillin-streptomycin (Invitrogen, cat. 15140122), and 2.5% Matrigel (Corning Inc., Corning, NY, cat. 354248) for the first three passages. The 947758-054-R-J2-PDC line was cultured in 6B/Colon 1A media, which includes advanced DMEM/F-12 (Thermo Fisher Scientific, cat. 12634028), 10 mM HEPES (Thermo Fisher Scientific, cat. 15630080), 1X GlutaMAX supplement (Thermo Fisher Scientific, cat. 35050061), 0.1 mg/mL primocin (InvivoGen, cat. ant-pm-2), 10% defined fetal bovine serum, heat inactivated (HyClone Laboratories Inc., cat. SH30070.03HI), 1.25 mM N-Acetyl-L-cysteine (Sigma-Aldrich, cat. A9165), 10 mM nicotinamide (Sigma-Aldrich, cat. N0636), 1X B-27 supplement (Thermo Fisher Scientific, cat. 17504044), 1X N-2 supplement (Thermo Fisher Scientific, cat. 17502048), and 10 microM Y-27632 dihydrochloride (Tocris Bioscience, cat. 1254). The 876862-298-R-J1-PDC was cultured in 6E media, which includes all 6B/Colon 1A media components plus 50% L-WRN conditioned media (ATCC, cat. CRL-3276), 50 ng/mL recombinant human EGF recombinant protein (hEGF; Thermo Fisher Scientific, cat. PHG0311), 10 ng/mL recombinant human fibroblast growth factor 10 (hGFG-10; PeproTech, cat. 100-26), 1 ng/mL recombinant human fibroblast growth factor 2 (hFGF-2; PeproTech, cat. 100-18B), and 1 µM prostaglandin E2 (PGE2; Tocris, cat. 2296). The 227483-062-R1-J1-PDC line was cultured in Panc media, containing all 6E components except hFGF-2, with the addition of 500 nM SB-431542 (Selleckchem, cat. S1067) and 10 nM gastrin (Tocris, cat. 3006). […]
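Further: spheroids exposed to agents for seven days before readout.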
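Wherever viability, T/C is given: 100% = DMSO vehicle control viability.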

SMILES: C=CC(=O)Nc1cc(Nc2nccc(-c3cn(C)c4ccccc34)n2)c(OC)cc1N(C)CCN(C)C + CNC(=O)c1ccc(Nc2nc(OC3CCCC3)c3c(-c4ccc5nc(C)oc5c4)c[nH]c3n2)c(OC)c1
- IC50 (second compound 0.0316 µM): > 300 nM
- IC50 (second compound 0.1 µM): 26.9 nM
- IC50 (second compound 0.316 µM): 17.9 nM
- IC50 (second compound 1 µM): < 0.949 nM
- IC50 (second compound 3.16 µM): < 0.949 nM
- IC50 (second compound 10 µM): < 0.949 nM
- viability, T/C (second compound 0.0316 µM, first compound 0.000949 µM): 81.8%
- viability, T/C (second compound 0.0316 µM, first compound 0.003 µM): 98.1%
- viability, T/C (second compound 0.0316 µM, first compound 0.00949 µM): 86.1%
- viability, T/C (second compound 0.0316 µM, first compound 0.03 µM): 84.2%
- viability, T/C (second compound 0.0316 µM, first compound 0.0949 µM): 68.1%
- viability, T/C (second compound 0.0316 µM, first compound 0.3 µM): 53.7%
- viability, T/C (second compound 0.1 µM, first compound 0.000949 µM): 63%
- viability, T/C (second compound 0.1 µM, first compound 0.003 µM): 56.2%
- viability, T/C (second compound 0.1 µM, first compound 0.00949 µM): 52.4%
- viability, T/C (second compound 0.1 µM, first compound 0.03 µM): 49%
- viability, T/C (second compound 0.1 µM, first compound 0.0949 µM): 49.6%
- viability, T/C (second compound 0.1 µM, first compound 0.3 µM): 37.6%
- viability, T/C (second compound 0.316 µM, first compound 0.000949 µM): 50.7%
- viability, T/C (second compound 0.316 µM, first compound 0.003 µM): 55.7%
- viability, T/C (second compound 0.316 µM, first compound 0.00949 µM): 49%
- viability, T/C (second compound 0.316 µM, first compound 0.03 µM): 49.5%
- viability, T/C (second compound 0.316 µM, first compound 0.0949 µM): 41.5%
- viability, T/C (second compound 0.316 µM, first compound 0.3 µM): 23.9%
- viability, T/C (second compound 1 µM, first compound 0.000949 µM): 49.1%
- viability, T/C (second compound 1 µM, first compound 0.003 µM): 51.4%
- viability, T/C (second compound 1 µM, first compound 0.00949 µM): 38.8%
- viability, T/C (second compound 1 µM, first compound 0.03 µM): 42.1%
- viability, T/C (second compound 1 µM, first compound 0.0949 µM): 36.6%
- viability, T/C (second compound 1 µM, first compound 0.3 µM): 18.9%
- viability, T/C (second compound 3.16 µM, first compound 0.000949 µM): 43.1%
- viability, T/C (second compound 3.16 µM, first compound 0.003 µM): 48.9%
- viability, T/C (second compound 3.16 µM, first compound 0.00949 µM): 39.3%
- viability, T/C (second compound 3.16 µM, first compound 0.03 µM): 44.2%
- viability, T/C (second compound 3.16 µM, first compound 0.0949 µM): 23.7%
- viability, T/C (second compound 3.16 µM, first compound 0.3 µM): 13.7%
- viability, T/C (second compound 10 µM, first compound 0.000949 µM): 46.5%
- viability, T/C (second compound 10 µM, first compound 0.003 µM): 40.6%
- viability, T/C (second compound 10 µM, first compound 0.00949 µM): 46.8%
- viability, T/C (second compound 10 µM, first compound 0.03 µM): 45%
- viability, T/C (second compound 10 µM, first compound 0.0949 µM): 25.8%
- viability, T/C (second compound 10 µM, first compound 0.3 µM): 12%
